Target: interaction between p53 and MDM2 proteins (Homo sapiens, UniProt Q00987)
Test: HTRF assay of inhibition of the p53-MDM2 interaction (GST-MDM2 / biotinylated p53 peptide)
Assay type: binding
Conditions: recombinant GST-tagged MDM2 and biotinylated p53 peptide, bsa:0.02%
Procedure: The ability of the compounds to inhibit the interaction between p53 and MDM2 proteins was measured by an HTRF (homogeneous time-resolved fluorescence) assay in which recombinant GST-tagged MDM2 binds to a peptide that resembles the MDM2-interacting region of p53. Binding of GST-MDM2 protein and p53-peptide (biotinylated on its N-terminal end) is registered by the FRET (fluorescence resonance energy transfer) between Europium (Eu)-labeled anti-GST antibody and streptavidin-conjugated Allophycocyanin (APC).
Add 10 uL diluted compounds (1:5 dilution in reaction buffer) to each well, mix by shaking. Add 20 uL biotinylated p53 peptide (180 nM working solution) in reaction buffer to each well and mix on shaker. Incubate at 37° C. for 1 h. Add 20 uL streptavidin-APC and Eu-anti-GST antibody mixture (6 nM Eu-anti-GST and 60 nM streptavidin-APC working solution) in TBS buffer with 0.2% BSA, shake at room temperature for 30 minutes and read using a TRF-capable plate reader at
665 and 615 nm (Victor 5, Perkin ElmerWallac). If not specified, the reagents were purchased from Sigma Chemical Co.

Chain of interaction between p53 and MDM2 proteins (Q00987 whole entry): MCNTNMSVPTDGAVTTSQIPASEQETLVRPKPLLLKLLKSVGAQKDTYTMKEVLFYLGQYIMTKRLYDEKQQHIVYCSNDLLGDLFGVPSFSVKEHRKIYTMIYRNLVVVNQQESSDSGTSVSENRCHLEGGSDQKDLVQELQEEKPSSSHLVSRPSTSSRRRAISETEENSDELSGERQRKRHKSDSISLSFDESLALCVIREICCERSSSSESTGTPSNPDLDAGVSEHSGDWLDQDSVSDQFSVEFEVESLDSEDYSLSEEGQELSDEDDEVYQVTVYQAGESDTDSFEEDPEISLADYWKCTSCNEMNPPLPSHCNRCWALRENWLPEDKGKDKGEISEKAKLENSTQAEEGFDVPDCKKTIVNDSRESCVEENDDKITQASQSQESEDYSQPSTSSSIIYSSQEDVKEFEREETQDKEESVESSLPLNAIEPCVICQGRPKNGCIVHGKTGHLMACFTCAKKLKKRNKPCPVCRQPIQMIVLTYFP

| Compound | IC50 [nM] |
| --- | --- |
| CC(C)(C)C[C@@H]1N[C@@H](C(=O)Nc2ccc(C(=O)O)cc2)[C@H](c2cccc(Cl)c2F)[C@]12C(=O)Nc1cc(Cl)ccc12 (racemic) [Example 6, rac-4-{[(2′S,3′R,4′S,5′R)-6-chloro-4′-(3-chloro-2-fluoro-phenyl)-2′-(2,2-dimethyl-propyl)-2-oxo-1,2-dihydro-spiro[indole-3,3′-pyrrolidine]-5′-carbonyl]amino}-benzoic acid] | 11 |
| CC(C)(C)C[C@@H]1N[C@@H](C(=O)Nc2ccc(C#N)cc2)[C@H](c2cccc(Cl)c2F)[C@]12C(=O)Nc1cc(Cl)ccc12 (racemic) [Example 7, rac-(2′S,3′R,4′S,5′R)-6-chloro-4′-(3-chloro-2-fluoro-phenyl)-2′-(2,2-dimethyl-propyl)-2-oxo-1,2-dihydro-spiro[indole-3,3′-pyrrolidine]-5′-carboxylic acid (4-cyano-phenyl)-amide] | 14 |
| CC(C)(C)C[C@@H]1N[C@@H](C(=O)Nc2ccc(S(C)(=O)=O)cc2)[C@H](c2cccc(Cl)c2F)[C@]12C(=O)Nc1cc(Cl)ccc12 (racemic) [Example 10, rac-(2′S,3′R,4′S,5′R)-6-chloro-4′-(3-chloro-2-fluoro-phenyl)-2′-(2,2-dimethyl-propyl)-2-oxo-1,2-dihydro-spiro[indole-3,3′-pyrrolidine]-5′-carboxylic acid (4-methanesulfonyl-phenyl)-amide] | 13 |
| CC(C)(C)C[C@@H]1N[C@@H](C(=O)Nc2ccc(F)cc2)[C@H](c2cccc(Cl)c2F)[C@]12C(=O)Nc1cc(Cl)ccc12 (racemic) [Example 13, rac-(2′S,3′R,4′S,5′R)-6-chloro-4′-(3-chloro-2-fluoro-phenyl)-2′-(2,2-dimethyl-propyl)-2-oxo-1,2-dihydro-spiro[indole-3,3′-pyrrolidine]-5′-carboxylic acid (4-fluoro-phenyl)-amide] | 19 |
| COc1cc(NC(=O)[C@@H]2N[C@@H](CC(C)(C)C)[C@@]3(C(=O)Nc4cc(Cl)ccc43)[C@H]2c2cccc(Cl)c2F)ccc1C(=O)O (racemic) [Example 16, rac-4-{[(2′S,3′R,4′S,5′R)-6-chloro-4′-(3-chloro-2-fluoro-phenyl)-2′-(2,2-dimethyl-propyl)-2-oxo-1,2-dihydro-spiro[indole-3,3′-pyrrolidine]-5′-carbonyl]-amino}-2-methoxy-benzoic acid] | 10 |
| CC(C)(C)C[C@@H]1N[C@@H](C(=O)Nc2ccc(Cl)cc2)[C@H](c2cccc(Cl)c2F)[C@]12C(=O)Nc1cc(Cl)ccc12 (racemic) [Example 21, rac-(2′S,3′R,4′S,5′R)-6-chloro-4′-(3-chloro-2-fluoro-phenyl)-2′-(2,2-dimethyl-propyl)-2-oxo-1,2-dihydro-spiro[indole-3,3′-pyrrolidine]-5′-carboxylic acid (4-chloro-phenyl)-amide] | 19 |
| COc1cc(NC(=O)[C@@H]2N[C@@H](CC(C)(C)C)[C@@]3(C(=O)Nc4cc(Cl)ccc43)[C@H]2c2cccc(Cl)c2F)ccc1C(N)=O (racemic) [Example 22, rac-(2′S,3′R,4′S,5′R)-6-chloro-4′-(3-chloro-2-fluoro-phenyl)-2′-(2,2-dimethyl-propyl)-2-oxo-1,2-dihydro-spiro[indole-3,3′-pyrrolidine]-5′-carboxylic acid (4-carbamoyl-3-methoxy-phenyl)-amide] | 11 |
| Cn1ccc(NC(=O)[C@@H]2N[C@@H](CC(C)(C)C)[C@@]3(C(=O)Nc4cc(Cl)ccc43)[C@H]2c2cccc(Cl)c2F)cc1=O (racemic) [Example 27, rac-(2′S,3′R,4′S,5′R)-6-chloro-4′-(3-chloro-2-fluoro-phenyl)-2′-(2,2-dimethyl-propyl)-2-oxo-1,2-dihydro-spiro[indole-3,3′-pyrrolidine]-5′-carboxylic acid (1-methyl-2-oxo-1,2-dihydro-pyridin-4-yl)-amide] | 17 |
| CC(C)(C)C[C@@H]1N[C@@H](C(=O)Nc2ccn(CCO)c(=O)c2)[C@H](c2cccc(Cl)c2F)[C@]12C(=O)Nc1cc(Cl)ccc12 (racemic) [Example 30] | 14 |
| CN(C)C(=O)c1ccc(NC(=O)[C@@H]2N[C@@H](CC(C)(C)C)[C@@]3(C(=O)Nc4cc(Cl)ccc43)[C@H]2c2cccc(Cl)c2F)cc1 (racemic) [Example 34, rac-(2′S,3′R,4′S,5′R)-6-chloro-4′-(3-chloro-2-fluoro-phenyl)-2′-(2,2-dimethyl-propyl)-2-oxo-1,2-dihydro-spiro[indole-3,3′-pyrrolidine]-5′-carboxylic acid (4-dimethylcarbamoyl-phenyl)-amide] | 18 |
| Cc1ccc(NC(=O)[C@@H]2N[C@@H](CC(C)(C)C)[C@@]3(C(=O)Nc4cc(Cl)ccc43)[C@H]2c2cccc(Cl)c2F)cc1 (racemic) [Example 36, rac-(2′S,3′R,4′S,5′R)-6-chloro-4′-(3-chloro-2-fluoro-phenyl)-2′-(2,2-dimethyl-propyl)-2-oxo-1,2-dihydro-spiro[indole-3,3′-pyrrolidine]-5′-carboxylic acid p-tolylamide] | 18 |

Further lines, results first:

| IC50 [nM] | Compound |
| --- | --- |
| 16 | COC(=O)c1ccc(NC(=O)[C@@H]2N[C@@H](CC(C)(C)C)[C@@]3(C(=O)Nc4cc(Cl)ccc43)[C@H]2c2cccc(Cl)c2F)cc1 (racemic) [Example 5, rac-4-{[(2′S,3′R,4′S,5′R)-6-chloro-4′-(3-chloro-2-fluoro-phenyl)-2′-(2,2-dimethyl-propyl)-2-oxo-1,2-dihydro-spiro[indole-3,3′-pyrrolidine]-5′-carbonyl]-amino}-benzoic acid methyl ester] |
| 7 | CC(C)(C)C[C@@H]1N[C@@H](C(=O)Nc2ccc(C(N)=O)cc2)[C@H](c2cccc(Cl)c2F)[C@]12C(=O)Nc1cc(Cl)ccc12 (racemic) [Example 8, rac-(2′S,3′R,4′S,5′R)-6-chloro-4′-(3-chloro-2-fluoro-phenyl)-2′-(2,2-dimethyl-propyl)-2-oxo-1,2-dihydro-spiro[indole-3,3′-pyrrolidine]-5′-carboxylic acid (4-carbamoyl-phenyl)-amide] |
| 13 | CC(=O)c1ccc(NC(=O)[C@@H]2N[C@@H](CC(C)(C)C)[C@@]3(C(=O)Nc4cc(Cl)ccc43)[C@H]2c2cccc(Cl)c2F)cc1 (racemic) [Example 11, rac-(2′S,3′R,4′S,5′R)-6-chloro-4′-(3-chloro-2-fluoro-phenyl)-2′-(2,2-dimethyl-propyl)-2-oxo-1,2-dihydro-spiro[indole-3,3′-pyrrolidine]-5′-carboxylic acid (4-acetyl-phenyl)-amide] |
| 22 | COC(=O)c1ccc(NC(=O)[C@@H]2N[C@@H](CC(C)(C)C)[C@@]3(C(=O)Nc4cc(Cl)ccc43)[C@H]2c2cccc(Cl)c2F)s1 (racemic) [Example 14, rac-5-{[(2′S,3′R,4′S,5′R)-6-chloro-4′-(3-chloro-2-fluoro-phenyl)-2′-(2,2-dimethyl-propyl)-2-oxo-1,2-dihydro-spiro[indole-3,3′-pyrrolidine]-5′-carbonyl]amino}-thiophene-2-carboxylic acid methyl ester] |
| 13 | COC(=O)c1ccc(NC(=O)[C@@H]2N[C@@H](CC(C)(C)C)[C@@]3(C(=O)Nc4cc(Cl)ccc43)[C@H]2c2cccc(Cl)c2F)cc1OC (racemic) [Example 15, rac-4-{[(2′S,3′R,4′S,5′R)-6-chloro-4′-(3-chloro-2-fluoro-phenyl)-2′-(2,2-dimethyl-propyl)-2-oxo-1,2-dihydro-spiro[indole-3,3′-pyrrolidine]-5′-carbonyl]amino}-2-methoxy-benzoic acid methyl ester] |
| 20 | COC(=O)c1ccc(NC(=O)[C@@H]2N[C@@H](CC(C)(C)C)[C@@]3(C(=O)Nc4cc(Cl)ccc43)[C@H]2c2cccc(Cl)c2F)cc1Cl (racemic) [Example 25, rac-2-chloro-4-{[(2′S,3′R,4′S,5′R)-6-chloro-4′-(3-chloro-2-fluoro-phenyl)-2′-(2,2-dimethyl-propyl)-2-oxo-1,2-dihydro-spiro[indole-3,3′-pyrrolidine]-5′-carbonyl]-amino}-benzoic acid methyl ester] |
| 17 | COC(=O)c1cccc(NC(=O)[C@@H]2N[C@@H](CC(C)(C)C)[C@@]3(C(=O)Nc4cc(Cl)ccc43)[C@H]2c2cccc(Cl)c2F)c1 (racemic) [Example 31, rac-3-{[(2′S,3′R,4′S,5′R)-6-chloro-4′-(3-chloro-2-fluoro-phenyl)-2′-(2,2-dimethyl-propyl)-2-oxo-1,2-dihydro-spiro[indole-3,3′-pyrrolidine]-5′-carbonyl]amino}-benzoic acid methyl ester] |
| 17 | CC(C)(C)C[C@@H]1N[C@@H](C(=O)Nc2cccc(C(=O)O)c2)[C@H](c2cccc(Cl)c2F)[C@]12C(=O)Nc1cc(Cl)ccc12 (racemic) [Example 32, rac-3-{[(2′S,3′R,4′S,5′R)-6-chloro-4′-(3-chloro-2-fluoro-phenyl)-2′-(2,2-dimethyl-propyl)-2-oxo-1,2-dihydro-spiro[indole-3,3′-pyrrolidine]-5′-carbonyl]-amino}-benzoic acid] |
| 13 | CC(C)(C)C[C@@H]1N[C@@H](C(=O)Nc2cccc(C(N)=O)c2)[C@H](c2cccc(Cl)c2F)[C@]12C(=O)Nc1cc(Cl)ccc12 (racemic) [Example 33, rac-(2′S,3′R,4′S,5′R)-6-chloro-4′-(3-chloro-2-fluoro-phenyl)-2′-(2,2-dimethyl-propyl)-2-oxo-1,2-dihydro-spiro[indole-3,3′-pyrrolidine]-5′-carboxylic acid (3-carbamoyl-phenyl)-amide] |

From patent publication US8088815B2, “Spiroindolinone pyrrolidines” (Hoffman-La Roche Inc., priority 2009, dated 2012)
